From patent US12258337B2, “Bicyclic CX3CR1 receptor agonists” (Board of Regents, The University of Texas System, priority 2019, dated 2025) come the findings set out here.

Type in all cases: cell-based
For test [1], the target named is T1, hCX3CR1 (Homo sapiens, UniProt P49238).
T1 sequence (P49238 1-355): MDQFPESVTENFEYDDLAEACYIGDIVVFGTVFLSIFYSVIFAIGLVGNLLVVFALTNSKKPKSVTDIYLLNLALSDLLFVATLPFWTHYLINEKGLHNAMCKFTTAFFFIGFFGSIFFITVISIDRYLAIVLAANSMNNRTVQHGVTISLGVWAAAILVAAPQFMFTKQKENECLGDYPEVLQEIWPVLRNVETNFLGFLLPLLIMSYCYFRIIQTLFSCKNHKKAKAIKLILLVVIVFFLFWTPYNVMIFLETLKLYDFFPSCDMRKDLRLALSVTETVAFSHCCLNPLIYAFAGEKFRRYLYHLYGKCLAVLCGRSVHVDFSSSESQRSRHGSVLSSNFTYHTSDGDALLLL
The test is described as follows: Ga16 assay, CX3CR1 agonism, Ca2+ sensitive photo-protein readout (FLIPRTETRA). As to conditions: human CX3CR1 cell line. Details: expressed in transfected cells; stably expresses a Ca2+ sensitive photo-protein. The protocol: (§1) Compounds (as well as stereoisomer(s) thereof and/or salt(s) thereof) were tested for CX3CR1 agonism in a cell based assay with fluorescent readout in Agonist Mode in dose response in quadruplicate with intra-plate modality).
(§2) Buffers and reagents. PBS (D-PBS without calcium and magnesium; EuroClone); Trypsin (Trypsin 0.05%, EDTA 0.02% in PBS; EuroClone); DMSO (Sigma); Standard tyrode buffer: in-house solution (130 mM NaCl, 5 mM KCl, 2 mM CaCl2), 1 mM MgCl2, 5 mM NaHCO3, 20 mM HEPES in water at pH 7.4; sterile filtered); Coelenterazine, native (Biosynth); stock 10 mM; Agonist: Recombinant Human Fractalkine (CX3CL1) (PeproTech); stock: 10 μM in standard tyrode buffer+BSA 0.1%; stored at −20° C.
(§3) Cell line. Human (hCX3CR1), mouse (mCX3CR1), and rat (rCX3CR1) were used for the assay.
(§4) Assay protocol. Experiments ere performed in 384 MTP format. Cells were seeded at 7,500 cells/well in 25 μl/well complete growth medium without selection antibiotics in 384-well plates. Twenty-four hours later, cells ere assayed for the response to various compounds using the Ca^2+ sensitive photo-protein stably expressed in the cells as readout.
(§5) The experiment was performed in a 384-well format according to the following procedure: • 24h after seeding, pre-incubate the cells at room temperature for 1 hour. • Then remove the culture medium. • Load cells with 20 μL/well of standard tyrode buffer+10 μM ceolenterazine. • Incubate cell plates for 3 hours at RT. • Inject 10 μL/w of 3× concentrated test compounds and controls in assay buffer at the FLIPRTETRA and monitor the kinetic response over a period of 90 seconds.
(§6) Data from FLIPRTETRA measurements were analyzed with the Genedata Screener© software. The following examples are meant to illustrate, but in no way to limit, the claimed invention.

In the next test the target is T2, rCX3CR1 (Rattus norvegicus, UniProt P35411).
T2 construct: expressed in transfected cells; stably expresses a Ca2+ sensitive photo-protein
T2 sequence (P35411 1-354): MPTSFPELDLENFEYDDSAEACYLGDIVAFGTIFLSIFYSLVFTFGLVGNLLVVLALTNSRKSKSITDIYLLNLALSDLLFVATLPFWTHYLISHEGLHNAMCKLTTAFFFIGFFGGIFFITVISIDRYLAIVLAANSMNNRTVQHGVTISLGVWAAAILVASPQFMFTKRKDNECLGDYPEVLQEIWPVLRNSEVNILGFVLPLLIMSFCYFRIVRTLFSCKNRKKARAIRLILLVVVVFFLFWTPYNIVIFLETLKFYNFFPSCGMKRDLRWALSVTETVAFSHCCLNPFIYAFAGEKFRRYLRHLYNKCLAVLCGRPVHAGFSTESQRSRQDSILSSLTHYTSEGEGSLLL
The test is described as above. As to conditions: rat CX3CR1 cell line. The method, then: as §1, §2, §3, §4, §5, §6

The target in another test is T3, mCX3CR1 (Mus musculus, UniProt Q9Z0D9).
T3 construct: expressed in transfected cells; stably expresses a Ca2+ sensitive photo-protein
T3 sequence (Q9Z0D9 1-354): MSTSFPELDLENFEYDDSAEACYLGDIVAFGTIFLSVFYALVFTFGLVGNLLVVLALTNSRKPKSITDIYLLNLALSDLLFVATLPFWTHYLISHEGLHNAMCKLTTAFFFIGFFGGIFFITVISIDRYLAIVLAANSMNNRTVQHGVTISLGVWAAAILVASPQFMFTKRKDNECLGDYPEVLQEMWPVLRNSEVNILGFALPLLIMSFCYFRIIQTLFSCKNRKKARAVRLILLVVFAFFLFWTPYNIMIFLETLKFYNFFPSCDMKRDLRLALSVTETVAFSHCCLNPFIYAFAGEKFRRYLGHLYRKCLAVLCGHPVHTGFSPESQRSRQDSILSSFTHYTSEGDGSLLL
The description is as above. The settings on record: mouse CX3CR1 cell line. The protocol:
as §1, §2, §3, §4, §5, §6

Test [2] deals with T1, hCX3CR1. The test is described as follows: Suchi5 assay (HEK/NatClytin/CNG/Suchi5 transiently transfected hCX3CR1, Fluo-8 Ca2+ readout). On the set-up: expressed in transfected cells; stably expresses a Ca2+ sensitive photo-protein. The settings on record: Suchi5 assay, HEK/NatClytin/CNG/Suchi5 transfected with hCX3CR1; read-out: hCX3CR1 agonism EC50. The method, then:
Buffers and reagents. PBS (D-PBS without calcium and magnesium; EuroClone); Trypsin (Trypsin 0.05%, EDTA 0.02% in PBS; EuroClone); Opti-MEM medium (Thermo Fisher); DMSO (Sigma); Standard tyrode buffer: in-house solution (130 mM NaCl, 5 mM KCl, 2 mM CaCl2), 1 mM MgCl2, 5 mM NaHCO3, 20 mM HEPES in water at pH 7.4; sterile filtered); Screen Quest™ Fluo-8 No Wash Calcium Assay Kit (AAt Bioquest®); Lipofectamine® 2000 Reagent (Thermo Fisher); Agonist: Recombinant Human Fractalkine (CX3CL1) (PeproTech); stock: 10 μM in standard Tyrode buffer/BSA 01%; stored at −20° C.
Cell line. The final cell line for CX3CR1-Suchi5 assay is HEK/NatClytin/CNG/Suchi5 transiently transfected hCX3CR1 cDNA. In this cell line native Gαi signaling is switched to Gαq pathway thanks to the overexpression of a Gαiq chimeric G protein (called Suchi5) to direct Gαi activation towards Ca^2+ release for measurement.
Assay protocol. Experiments are performed in 384 MTP format. Transiently transfected cells are seeded at 20,000 cells/well in 25 μl/well Opti-MEM medium without selection antibiotics in 384-well plates. 4-5-hours later 25 μL/well of complete medium with 20% of FBS are added to the cells. Twenty-four hours later, cells are assayed for the response to various compounds using a fluorescent Ca^2+ sensitive dye (FLUO8-No Wash Dye) as readout.
The experiment is performed in a 384-well format according to the following procedure: • 24h after seeding, remove the culture medium. • Load cells with 20 μL/well of 0.5X FLUO-8 No Wash Dye diluted in assay buffer. • Incubate cell plates for 1 hour at RT. • Inject 10 μL/w of 3× concentrated test compounds and controls in assay buffer at the FLIPRTETRA and monitor the kinetic response over a period of 90 seconds.
Data from FLIPRTETRA measurements are analyzed with the Genedata Screener© software.

A value given as a limit tells only on which side of the number the result lay.

With `O=C(NCC1(CN2CCC(O)CC2)CCCOC1)c1cc2c(s1)CCCCCC2` (stereo not shown) [Example 45, N-[[3-[(4-hydroxypiperidin-1-yl)methyl]oxan-3-yl]methyl]-4,5,6,7,8,9-hexahydrocycloocta[b]thiophene-2-carboxamide], the EC50 at hCX3CR1 [1] was determined as 14.3 µM; at rCX3CR1 it was 18.7 µM; at mCX3CR1, 41.6 µM; at hCX3CR1 [2], 14.1 µM.
The matching figures for `CC(C)(CNC(=O)c1cc2c(s1)CCCCCC2)CN1CCCC(O)C1` (stereo not shown) [Example 46, N-[3-(3-hydroxypiperidin-1-yl)-2,2-dimethylpropyl]-4,5,6,7,8,9-hexahydrocycloocta[b]thiophene-2-carboxamide]: 10.9 µM, 19.8 µM, 52.8 µM and 11.8 µM.
The matching figures for `COC1CCN(CC(C)(C)CNC(=O)c2cc3c(s2)CCCCCC3)CC1` [Example 47, N-[3-(4-methoxypiperidin-1-yl)-2,2-dimethylpropyl]-4,5,6,7,8,9-hexahydrocycloocta[b]thiophene-2-carboxamide]: 12.6 µM, 19.8 µM, 71.5 µM and 16.4 µM.
The matching figures for `COC1(C)CCN(CC2(CNC(=O)c3cc4c(s3)CCCCCC4)CCC2)CC1` [Example 48, N-[[1-[(4-methoxy-4-methylpiperidin-1-yl)methyl]cyclobutyl]methyl]-4,5,6,7,8,9-hexahydrocycloocta[b]thiophene-2-carboxamide]: 18.5 µM, 13.7 µM, 18.2 µM and 9.9 µM.
Regarding `COC1CCN(CC2(CNC(=O)c3cc4c(s3)CCCCCC4)CCC2)CC1` [Example 49, N-[[1-[(4-methoxypiperidin-1-yl)methyl]cyclobutyl]methyl]-4,5,6,7,8,9-hexahydrocycloocta[b]thiophene-2-carboxamide], the EC50 at hCX3CR1 [1] turned out to be 10 µM; at rCX3CR1, 6.6 µM; at mCX3CR1, 8.7 µM; at hCX3CR1 [2], 8.9 µM.
The matching figures for `CC(C)OC1CCCN(CC2(CNC(=O)c3cc4c(s3)CCCCCC4)CCC2)C1` (stereo not shown) [Example 50, N-[[1-[(3-propan-2-yloxypiperidin-1-yl)methyl]cyclobutyl]methyl]-4,5,6,7,8,9-hexahydrocycloocta[b]thiophene-2-carboxamide]: 15.8 µM, 43.5 µM, 45.7 µM and 16.1 µM.
The matching figures for `CC(C)OC1CCN(CC2(CNC(=O)c3cc4c(s3)CCCCCC4)CCC2)CC1` [Example 51, N-[[1-[(4-propan-2-yloxypiperidin-1-yl)methyl]cyclobutyl]methyl]-4,5,6,7,8,9-hexahydrocycloocta[b]thiophene-2-carboxamide]: 15.7 µM, 34.8 µM, 15.4 µM and 18.4 µM.
With `CC1(O)CCCN(CC2(CNC(=O)c3cc4c(s3)CCCCCC4)CCCC2)C1` (stereo not shown) [Example 52, N-[[1-[(3-hydroxy-3-methylpiperidin-1-yl)methyl]cyclopentyl]methyl]-4,5,6,7,8,9-hexahydrocycloocta[b]thiophene-2-carboxamide], the EC50 is 19.4 µM at hCX3CR1 [1], 19.4 µM at rCX3CR1, 25.1 µM on mCX3CR1 and 8.4 µM at hCX3CR1 [2].
Regarding `COC1(C)CCN(CC2(CNC(=O)c3cc4c(s3)CCCCCC4)CCCC2)CC1` [Example 53, N-[[1-[(4-methoxy-4-methylpiperidin-1-yl)methyl]cyclopentyl]methyl]-4,5,6,7,8,9-hexahydrocycloocta[b]thiophene-2-carboxamide], the EC50 on hCX3CR1 [1] was determined as 8.6 µM; on rCX3CR1, 33.7 µM; on mCX3CR1, 48.6 µM; at hCX3CR1 [2] it was 11.8 µM.
The matching figures for `COC1CCCN(CC(C)(C)CNC(=O)c2cc3c(s2)CCCCCC3)C1` (stereo not shown) [Example 54, N-[3-(3-methoxypiperidin-1-yl)-2,2-dimethylpropyl]-4,5,6,7,8,9-hexahydrocycloocta[b]thiophene-2-carboxamide]: 16.3 µM, above 100 µM, above 100 µM and 17.4 µM.
The matching figures for `COC1CCCN(CC2(CNC(=O)c3cc4c(s3)CCCCCC4)CCC2)C1` (stereo not shown) [Example 55, N-({1-[(3-Methoxypiperidin-1-yl)methyl]cyclobutyl}methyl)-4H,5H,6H,7H,8H,9H-cycloocta[b]thiophene-2-carboxamide]: 13.7 µM, 12.1 µM, 8.1 µM and 7.1 µM.
The matching figures for `CN(C)CC1(CNC(=O)c2cc3c(s2)CCCCCC3)CC(F)(F)C1` [Example 56, N-[[1-[(dimethylamino)methyl]-3,3-difluorocyclobutyl]methyl]-4,5,6,7,8,9-hexahydrocycloocta[b]thiophene-2-carboxamide]: 18.5 µM, 23.9 µM, 24.9 µM and 9.6 µM.
Regarding `O=C(NCC1(CN2CCCC2)CC(F)(F)C1)c1cc2c(s1)CCCCCC2` [Example 57, N-[[3,3-difluoro-1-(pyrrolidin-1-ylmethyl)cyclobutyl]methyl]-4,5,6,7,8,9-hexahydrocycloocta[b]thiophene-2-carboxamide], the EC50 on hCX3CR1 [1] was determined as 15.3 µM; at rCX3CR1, 20.3 µM; on mCX3CR1, 30.1 µM; at hCX3CR1 [2], 15.6 µM.
